Laboratory results: the supplement of paper PMC10307832

Tests used:
Experiment in all cases: relative viability (nuclei count vs DMSO), 5 days (fraction); higher = more cells survive
[1] = compound: C1=CC=C(C(=C1)C2=CC=C(C=C2)C3=CSC4=C3C(=C(C(=O)N4)C#N)O)O + CC(=O)Nc1cccc(-n2c(=O)n(C3CC3)c(=O)c3c(Nc4ccc(I)cc4F)n(C)c(=O)c(C)c32)c1 [Trametinib] (partner 0.02 µM)
Outline: (§1)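 Medians of duplicate plates are given as relative viability. That measure is the nuclei count in treated wells divided by the count in vehicle wells. Counts were taken on 4× images of lung cancer cell lines in 1536-well plates, 5 days after pin-tool dosing the day after seeding with one drug alone or a fixed anchor-drug dose plus five library-drug doses (not always all listed) in √10 steps.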

[2] = compound: C1=CC=C(C(=C1)C2=CC=C(C=C2)C3=CSC4=C3C(=C(C(=O)N4)C#N)O)O + Nc1nc2[nH]cc(CCc3ccc(C(=O)N[C@@H](CCC(=O)O)C(=O)O)cc3)c2c(=O)[nH]1 [Pemetrexed] (partner 0.2 µM)
Outline: as §1

[3] = compound: O=C(CCCCCCNC(=O)c1cnc(N(c2ccccc2)c2ccccc2)nc1)NO [Ricolinostat] + Cc1nc(NC(=O)N2CCC[C@H]2C(N)=O)sc1-c1ccnc(C(C)(C)C(F)(F)F)c1 [Alpelisib] (partner 2 µM)
Outline: as §1

[4] = compound: O=C(CCCCCCNC(=O)c1cnc(N(c2ccccc2)c2ccccc2)nc1)NO [Ricolinostat] + Nc1ncn([C@H]2C[C@H](O)[C@@H](CO)O2)c(=O)n1 [Decitabine] (partner 2 µM)
Outline: as §1

Row | Cell Line | relative viability ([1]; first compound 0.08 µM) | relative viability ([1]; first compound 0.253 µM) | relative viability ([1]; first compound 0.8 µM) | relative viability ([1]; first compound 2.53 µM) | relative viability ([1]; first compound 8 µM) | relative viability ([2]; first compound 0.08 µM) | relative viability ([2]; first compound 0.253 µM) | relative viability ([2]; first compound 0.8 µM) | relative viability ([2]; first compound 2.53 µM) | relative viability ([2]; first compound 8 µM) | relative viability ([3]; first compound 0.08 µM) | relative viability ([3]; first compound 0.253 µM) | relative viability ([3]; first compound 0.8 µM) | relative viability ([3]; first compound 2.53 µM) | relative viability ([4]; first compound 0.08 µM) | relative viability ([4]; first compound 0.253 µM) | relative viability ([4]; first compound 0.8 µM) | relative viability ([4]; first compound 2.53 µM)
1 | NCI-H2009 | 0.226 | 0.268 | 0.333 | 0.249 | 0.295 | 0.97 | 1.04 | 1.02 | 1.1 | 1.08 | 1.13 | 1.11 | 1.12 | 0.923 | 0.376 | 0.353 | 0.35 | 0.373
2 | H3255 | 0.57 | 0.676 | – | 0.782 | 0.526 | 0.561 | 0.563 | 0.561 | 0.591 | 0.54 | 0.517 | 0.651 | 0.678 | 0.661 | 0.522 | 0.598 | 0.538 | 0.426
3 | EPLC-272H | 0.269 | – | 0.245 | 0.252 | 0.289 | 0.346 | 0.249 | 0.297 | 0.32 | 0.441 | – | 0.891 | 1.04 | 0.7 | – | 0.36 | 0.368 | 0.325
4 | NCI-H1734 | 0.57 | 0.666 | 0.728 | 0.669 | 0.559 | 0.396 | 0.403 | 0.462 | 0.401 | 0.448 | 0.469 | 0.684 | 0.645 | 0.721 | 0.486 | 0.497 | 0.519 | 0.47
5 | NCI-H2087 | 0.283 | 0.285 | 0.206 | 0.208 | 0.202 | 0.608 | 0.671 | 0.675 | 0.67 | 0.747 | 1.14 | 1.21 | 0.949 | 0.999 | 0.23 | 0.318 | 0.24 | 0.145
6 | NCI-H522 | 1 | 0.784 | 0.827 | 0.687 | 0.718 | 0.965 | 1.02 | 1.04 | 0.911 | 0.878 | – | – | – | – | 0.641 | 0.702 | 0.714 | 0.642
7 | NCI-H1666 | 0.819 | 1.13 | 0.935 | 0.861 | 0.803 | 0.796 | 0.833 | 0.894 | 0.865 | 0.761 | 0.938 | 0.895 | 0.997 | 0.463 | 0.71 | 0.764 | 0.758 | 0.717
8 | NCI-H2342 | 0.754 | 0.88 | 0.794 | 0.681 | 0.68 | 0.769 | 0.938 | 0.713 | 0.755 | 0.712 | – | – | – | – | 0.628 | 0.719 | 0.784 | 0.718
9 | Calu-6 | – | – | – | – | – | – | – | – | – | – | 0.91 | 0.947 | 1.01 | 0.878 | – | – | – | –
10 | A549 | – | – | – | – | – | – | – | – | – | – | 0.537 | 0.805 | 0.663 | 0.631 | 0.314 | 0.259 | 0.306 | 0.246
11 | ABC-1 | – | – | – | – | – | – | – | – | – | – | 0.955 | 0.933 | 1.11 | 0.648 | 0.829 | 1.03 | 0.989 | 1.03
12 | NCI-H1703 | – | – | – | – | – | – | – | – | – | – | – | 0.316 | 0.401 | 0.377 | – | – | – | –
13 | NCI-H1299 | – | – | – | – | – | – | – | – | – | – | 1.06 | 0.99 | 0.988 | 0.944 | – | – | – | –
14 | NCI-H727 | 0.39 | 0.373 | 0.384 | 0.423 | 0.331 | – | – | – | – | – | 0.546 | 0.64 | 0.759 | 0.502 | 0.807 | 0.934 | 0.957 | 0.952
15 | ChaGo-K-1 | 0.94 | 0.905 | 0.935 | 1.01 | 0.857 | 0.271 | 0.257 | 0.256 | 0.251 | 0.256 | – | – | – | – | 0.58 | 0.495 | 0.51 | 0.509
16 | EBC-1 | – | – | – | – | – | – | – | – | – | – | 0.57 | 0.737 | 0.699 | 0.414 | – | – | – | –
17 | NCI-H1650 | 0.639 | 0.495 | 0.524 | 0.597 | 0.42 | 0.339 | 0.359 | 0.461 | 0.33 | 0.32 | – | – | – | – | 0.489 | 0.346 | 0.358 | 0.311
18 | NCI-H1648 | – | 0.487 | 0.61 | 0.546 | 0.353 | – | 0.682 | 0.732 | 0.813 | 0.747 | – | – | – | – | – | 0.506 | 0.486 | 0.316
19 | CAL-12T | 0.378 | 0.381 | 0.312 | 0.333 | 0.27 | 0.958 | 1.23 | 1.24 | 1.43 | 1.33 | 1.1 | 0.998 | 1.15 | 0.912 | – | – | – | –
20 | SW 900 | – | 1.06 | 0.947 | 0.762 | 0.646 | – | 0.487 | 0.453 | 0.464 | 0.47 | – | – | – | – | 0.517 | 0.433 | 0.368 | 0.401
21 | NCI-H2228 | 0.342 | 0.459 | 0.544 | 0.458 | 0.465 | 0.371 | 0.454 | 0.351 | 0.332 | 0.367 | 0.555 | 0.984 | 0.722 | 0.791 | – | – | – | –
22 | IA-LM | – | – | – | – | – | – | – | – | – | – | 0.616 | 0.819 | 0.623 | 0.363 | – | – | – | –
